Assay results reported in patent US7531162B2, “Transcobalamin receptor binding conjugates useful for treating abnormal cellular proliferation” (Mayo Foundation for Medical Education and Research, priority 2000, dated 2009).

What was measured:
[1] = system: transcobalamin proteins; test: modified Unsaturated vitamin B12 Binding Capacity (UBBC) assay with patient serum; design: species or system human; conditions: non-labeled solution (1000 μg/10 mL saline, 1 μL) preincubated with serum of five patients, then Co-57-cyanocobalamin
Protocol: Louis, Mo. 63178), were separately dissolved in 10 mL of normal saline at room temperature. […] No buffers were added to the solutions. The pH of the solutions, measured by a Beckman 40 pH meter (Beckman Instruments, Fullerton, Calif.): […] To assess in vitro binding to Intrinsic Factor (IF) and Transcobalamins (TC), the intrinsic factor blocking antibody (IFBA) and Unsaturated vitamin B12 Binding Capacity (UBBC) assays were performed with serum randomly obtained from five patients being evaluated for pernicious anemia at the Mayo Clinic. The IFBA and UBBC assays were first performed for clinical purposes as previously described by V. F. Fairbanks et al., Mayo Clin. Proc., 58, 203 (1983); Intrinsic Factor Blocking Antibody (^57Co) Radioassay-Package insert, Diagnostic Products Corp.; D. Grossowicz et al., Proc. Exp. Biol., 109, 604 (1962) and C. Gottlieb et al., Blood, 25, 6 (1965). Next, the serum from the same five patients underwent modified IFBA and UBBC assays. Specifically, 1 μL of the five previously described solutions was separately incubated with purified IF or serum, to potentially saturate all IF and TC-binding sites. […] Louis, Mo. 63134) solution was added and the usual IFBA and UBBC protocols were then followed. All supernatant activity was counted for four minutes on a gamma counter (Micromedix 10/20, Huntsville, Ala. 35805). […] Comparison of cyanocobalamin-DTPA to cyanocobalamin was 66.4% (Transcobalamin II receptor imaging via radiolabeled diethylene-triaminepentaacetate cobalamin analogs, J. Nucl. Med., 38, 717-723 (1997); also described in U.S. Pat. […] A. Collins, […], Tumor Imaging Indium-111-labeled DTPA-adenosylcobalamin, Mayo Clinic Proceedings, 1999; 74; 687-691; Biodistribution of Radiolabeled Adenosylcobalamin in Humans, Review of 30 patents submitted to Mayo Clinic Proceedings). This should improve tumor-to-background ratio, which can be evaluated in murine tumor models. Attachment of either the adenosyl and methyl group as the beta ligand should improve the biological activity as it did with the cyanocobalamin mono-DTPA compound (Transcobalamin II receptor imaging via radiolabeled diethylene-triaminepentaacetate cobalamin analogs, J. Nucl. Med., 38, 717-723 (1997); also described in U.S. Pat.

[2] = pH of 1000 μg/10 mL solutions in normal saline; assay type: physicochemical; conditions: 1000 μg in 10 mL normal saline, room temperature, no buffers
Protocol: (§1) Under dim light, 1000 μg of the non-labeled methyl-, adenosyl-, and cyanocobalamin-b-(4-aminobutyl)amide-DTPA, as well as 1000 μg of cyanocobalamin and DTPA (Sigma, St. Louis, Mo. 63178), were separately dissolved in 10 mL of normal saline at room temperature. Each of the five 1000 μg/10 mL samples was stored in sealed, aluminum-wrapped 10 mL vials to prevent exposure to light. No buffers were added to the solutions. The pH of the solutions, measured by a Beckman 40 pH meter (Beckman Instruments, Fullerton, Calif.): Cyanocobalamin=5.75, DTPA=3.78; cyano, methyl and adenosylcobalamin-DTPA analogues were 5.75, 6.10, and 6.19, respectively.

[3] = system: Intrinsic Factor (IF); test: modified intrinsic factor blocking antibody (IFBA) assay, competition with Co-57-cyanocobalamin; assay type: binding; conditions: for averaged percent binding to IF: non-labeled solution (1000 μg/10 mL saline, 1 μL) preincubated with purified IF, then Co-57-cyanocobalamin, average over five patients' runs, estimated from counts vs Clinical run; for binding to IF in the IFBA assay (in words): competition with Co-57 cyanocobalamin, compared with negative reference
Protocol: as §1
To assess in vitro binding to Intrinsic Factor (IF) and Transcobalamins (TC), the intrinsic factor blocking antibody (IFBA) and Unsaturated vitamin B12 Binding Capacity (UBBC) assays were performed with serum randomly obtained from five patients being evaluated for pernicious anemia at the Mayo Clinic. The IFBA and UBBC assays were first performed for clinical purposes as previously described by V. F. Fairbanks et al., Mayo Clin. Proc., 58, 203 (1983); Intrinsic Factor Blocking Antibody (^57Co) Radioassay-Package insert, Diagnostic Products Corp.; D. Grossowicz et al., Proc. Exp. Biol., 109, 604 (1962) and C. Gottlieb et al., Blood, 25, 6 (1965).
Next, the serum from the same five patients underwent modified IFBA and UBBC assays. Specifically, 1 μL of the five previously described solutions was separately incubated with purified IF or serum, to potentially saturate all IF and TC-binding sites.
After incubation for 20 minutes at room temperature and for another 20 minutes at 4° C., 500 μl of the stock (1000 μg/l) Cobalt-57-cyanocobalamin (Mallinckrodt Medical, Inc., St. Louis, Mo. 63134) solution was added and the usual IFBA and UBBC protocols were then followed. All supernatant activity was counted for four minutes on a gamma counter (Micromedix 10/20, Huntsville, Ala. 35805).
By using the counts of the Clinical run divided into the counts of the five solutions, the efficacy of binding to intrinsic factor can be estimated. The averaged percent binding of the five solutions to IF was: cyanocobalamin=92.5%; methyl-cobalamin-b-(4-aminobutyl)-amide-DTPA=63.2%; cyanocobalamin-b-(4-aminobutyl)-amide-DTPA=52.9%; adenosylcobalamin-b-(4-aminobutyl)-amide-DTPA=41.0% and 0.8% for DTPA.

[4] = system: transcobalamin proteins; conditions: relative to cyanocobalamin; J. Nucl. Med. 38, 717-723 (1997), U.S. Pat. No. 5,739,313; cited from earlier work
[5] = Deprez-Decampaneere et al. 1978; cited from earlier work

| Compound | averaged percent binding to the transcobalamin proteins [1] [%] | pH of the solution [2] | averaged percent binding to IF [3] [%] | binding to IF in the IFBA assay (in words) [3] | in vitro UBBC comparison to cyanocobalamin [4] [%] | hydrolysis in vivo to regenerate daunorubicin [5] |
| --- | --- | --- | --- | --- | --- | --- |
| Methylcobalamin-b-(4-aminobutyl)amide DTPA | 94.0 | 6.10 | 63.2 | – | – | – |
| cyanocobalamin | 100 | 5.75 | 92.5 | competitively inhibit Co-57 cyanocobalamin from binding to intrinsic factor | – | – |
| O=C(O)CN(CCN(CC(=O)O)CC(=O)O)CCN(CC(=O)O)CC(=O)O [DTPA, diethylenetriaminepentaacetic acid] | 3.6 | 3.78 | 0.8 | does not significantly bind to IF | – | – |
| Cyanocobalamin-b-(4-aminobutyl)amide DTPA | 66.4 | 5.75 | 52.9 | – | 66.4 | – |
| COc1cccc2c1C(=O)c1c(O)c3c(c(O)c1C2=O)CC(O)(C(C)=O)CC3OC1CC(NC(=O)C(N)CC(C)C)C(O)C(C)O1 (single isomer, unassigned) [D isomer] | – | – | – | – | – | not |
| COc1cccc2c1C(=O)c1c(O)c3c(c(O)c1C2=O)C[C@@](O)(C(C)=O)C[C@@H]3O[C@H]1C[C@H](NC(=O)[C@@H](N)CC(C)C)C(O)[C@H](C)O1 (stereo partly drawn) [N-(L-leucyl) daunorubicin] | – | – | – | – | – | hydrolyzed in vivo to regenerate daunorubicin |
| Adenosylcobalamin-b-(4-aminobutyl)amide DTPA | 90.4 | 6.19 | 41.0 | – | – | – |
